Among the test systems are RXF 393 renal; UO-31 renal; HCT-15 colon; HOP-62 NSCLC; SR leukemia; SF-539 CNS; SK-OV-3 ovarian; DU-145 prostate; HCC-2998 colon; CAKI-1 renal.
Common to all, as to test: growth of human tumour cells (NCI), 48 h

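The compound was tested at five concentrations on cells cultured in 96-well plates, with a 48-hour exposure period. GI50 marks 50% less growth. TGI: total growth inhibition.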

Turning to `O=C(Oc1c(Cl)c(Cl)c(Cl)c(Cl)c1Cl)C1CCCN1C(=O)OCc1ccccc1` (stereo not drawn), the GI50 is 3.94 µM in the test with RXF 393 renal; 2.9 µM in the test on UO-31 renal; 3.08 µM with HCT-15 colon; 3.45 µM in the test with HOP-62 NSCLC; 3.82 µM with SR leukemia; 2.63 µM with SF-539 CNS. Further, the GI50 with SK-OV-3 ovarian is 3.15 µM; in the test on DU-145 prostate, 4.49 µM; in the test with HCC-2998 colon, 4.36 µM; with CAKI-1 renal, 2.8 µM. Besides, the TGI with RXF 393 renal was determined as 15.4 µM; in the test on UO-31 renal it was 12.3 µM; in the test with HCT-15 colon it was 11.7 µM; with HOP-62 NSCLC, 14.9 µM; in the test on SR leukemia, 15.7 µM; with SF-539 CNS, 9.56 µM. Further, the TGI in the test on SK-OV-3 ovarian came out at 9.07 µM; in the test with DU-145 prostate it was 20 µM; with HCC-2998 colon it was 14.9 µM; in the test with CAKI-1 renal it was 8.52 µM.
Consider `CSc1ccc(NC(=O)CCl)cc1`, for which the TGI with RXF 393 renal is > 10 µM; with UO-31 renal it was 9.79 µM; in the test with HCT-15 colon, > 10 µM; in the test on HOP-62 NSCLC, > 10 µM; in the test on SR leukemia, > 10 µM; in the test on SF-539 CNS, > 10 µM. Besides, the TGI in the test on SK-OV-3 ovarian is > 10 µM; in the test with DU-145 prostate, > 10 µM; in the test with HCC-2998 colon, 7.19 µM; with CAKI-1 renal, > 10 µM.
In the case of `COc1ncc(-c2ccc3ncnc(Nc4cccc(Cl)c4)c3c2)cc1NS(C)(=O)=O`, the GI50 in the test on RXF 393 renal is 1.42 µM; with UO-31 renal it was 0.354 µM; in the test on HCT-15 colon, 1.66 µM; with HOP-62 NSCLC it was 1.53 µM; in the test with SR leukemia, 3.91 µM; in the test with SF-539 CNS it was 2.09 µM. Besides, the GI50 with SK-OV-3 ovarian was 0.813 µM; in the test with DU-145 prostate it was 0.756 µM; in the test on HCC-2998 colon, 1.82 µM; in the test on CAKI-1 renal it was 0.457 µM. Further, the TGI in the test on RXF 393 renal was 4.79 µM; in the test on UO-31 renal, 8.96 µM; in the test with HCT-15 colon, 13.2 µM; in the test with HOP-62 NSCLC, 42.4 µM; in the test with SR leukemia it was > 100 µM; with SF-539 CNS it was 9.92 µM. Further, the TGI in the test on SK-OV-3 ovarian is 4.16 µM; in the test with DU-145 prostate, 21.1 µM; in the test on HCC-2998 colon it was 14.8 µM; in the test on CAKI-1 renal it was 10.8 µM.
As to `COc1ccc(C(=O)c2cc(C)c(OC)c(C)c2)c(OC)c1OC(=O)C(Cl)Cl`, the GI50 in the test with RXF 393 renal was 0.257 µM; with UO-31 renal, 0.0658 µM; with HCT-15 colon, 0.0339 µM; in the test on HOP-62 NSCLC, 0.221 µM; with SR leukemia, 0.0181 µM; in the test on SF-539 CNS, 0.0238 µM. Moreover, the GI50 in the test on SK-OV-3 ovarian was 0.163 µM; in the test with DU-145 prostate, 0.0377 µM; in the test with HCC-2998 colon it was 0.178 µM; with CAKI-1 renal it was 0.338 µM. Also, the TGI was > 100 µM in the test on RXF 393 renal; > 50.5 µM in the test on UO-31 renal; > 100 µM with HCT-15 colon; > 100 µM in the test with HOP-62 NSCLC; > 100 µM in the test on SR leukemia; 0.0702 µM with SF-539 CNS. In addition, the TGI with SK-OV-3 ovarian is > 100 µM; with DU-145 prostate, 4.8 µM; with HCC-2998 colon, > 23.6 µM; in the test on CAKI-1 renal, > 100 µM.
Consider `COc1ccc(-n2nc(C(=O)NCC(=O)Nc3nc4cc(OC)ccc4s3)c3ccccc3c2=O)cc1`, for which the GI50 in the test on RXF 393 renal was 0.698 µM; in the test on UO-31 renal it was 2.28 µM; with HCT-15 colon it was > 24 µM; in the test on HOP-62 NSCLC, 0.663 µM; in the test with SR leukemia, > 20.5 µM; with SF-539 CNS, 0.407 µM. Also, the GI50 in the test with SK-OV-3 ovarian was 1.83 µM; in the test on DU-145 prostate it was 0.919 µM; with HCC-2998 colon it was 0.589 µM; in the test on CAKI-1 renal, 0.366 µM. For the same compound, the TGI is 2.07 µM in the test on RXF 393 renal; > 100 µM in the test on HCT-15 colon; 2.07 µM with HOP-62 NSCLC; > 100 µM with SR leukemia; 1.27 µM in the test with SF-539 CNS; 4.93 µM with SK-OV-3 ovarian. Also, the values for the TGI with HCC-2998 colon and in the test on CAKI-1 renal were 7.89 µM and 2.99 µM, respectively.
In the case of `CCCCc1n(Cc2ccc3ccccc3n2)cc[n+]1Cc1ccc2ccccc2c1`, the GI50 in the test on RXF 393 renal is 1.22 µM; with UO-31 renal it was 3.22 µM; with HCT-15 colon it was 5.07 µM; in the test with HOP-62 NSCLC, 1.72 µM; in the test with SR leukemia it was 0.456 µM; in the test on SF-539 CNS, 0.916 µM. The GI50 is 1.47 µM with SK-OV-3 ovarian, 1.44 µM in the test on DU-145 prostate, 0.641 µM with HCC-2998 colon and 1.62 µM in the test on CAKI-1 renal. Moreover, the TGI with RXF 393 renal was 3.16 µM; in the test with UO-31 renal, 13.6 µM; with HCT-15 colon, 18.1 µM; in the test on HOP-62 NSCLC it was 5.25 µM; with SR leukemia, 1.95 µM; with SF-539 CNS, 3.05 µM. The TGI was 4.33 µM in the test with SK-OV-3 ovarian, 7.98 µM with DU-145 prostate, 2.01 µM in the test with HCC-2998 colon and 3.64 µM with CAKI-1 renal.

The values are drawn from PubChem BioAssay (NCI).
